In PubChem BioAssay AID743307 (Sanford-Burnham Center for Chemical Genomics, 2014):

Target: Low molecular weight phosphotyrosine protein phosphatase (Homo sapiens) (UniProt P24666)
Assay: LMPTP phosphatase inhibitors, dose response, biochemical, OMFP substrate, fluorescence intensity, set 2 (AID 743307)
Settings: LMPTP-A enzyme, OMFP fluorogenic substrate

Sequence of Low molecular weight phosphotyrosine protein phosphatase (Homo sapiens) (P24666 whole entry, looked up): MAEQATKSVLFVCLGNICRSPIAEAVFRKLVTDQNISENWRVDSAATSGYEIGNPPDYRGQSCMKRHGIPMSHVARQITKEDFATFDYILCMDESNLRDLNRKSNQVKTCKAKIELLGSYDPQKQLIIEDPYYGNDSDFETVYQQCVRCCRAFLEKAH

## COc1ccc(-c2cc(NCCCN3CCCCC3)c3ccccc3n2)cc1
  IC50: 1.68 µM
